# Measured values: PMC7407242, “Deamidated Human Triosephosphate Isomerase is a Promising Druggable Target” (Biomolecules, 2020)
# Experiments:
# [1] = target: T1, HsTIM (human triosephosphate isomerase) (Homo sapiens, UniProt P60174, N16D); assay: residual activity after preincubation, coupled alpha-GPDH / NADH assay at […] nm; format: biochemical; conditions: read-out: activity dropped to 50%
# T1 construct: gene TPI1; full-length; recombinant E. coli BL21-CodonPlus(DE3)-RIL, vector pET3a-HisTEV, N-terminal His6-TEV tag cut by TEVp for purified assays; tagged plasmid in E. coli tim-deletion BL21-Gold(DE3) cells for omeprazole; homodimer, 5 Cys per subunit
# T1 sequence (P60174 2-249 N16D): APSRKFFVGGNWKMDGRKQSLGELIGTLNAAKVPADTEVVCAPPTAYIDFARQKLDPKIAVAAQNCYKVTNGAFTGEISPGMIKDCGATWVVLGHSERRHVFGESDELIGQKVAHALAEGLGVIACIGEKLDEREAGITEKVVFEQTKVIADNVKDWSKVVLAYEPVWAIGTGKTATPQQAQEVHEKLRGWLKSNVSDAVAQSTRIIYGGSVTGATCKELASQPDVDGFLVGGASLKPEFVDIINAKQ
# [2] = target: T2, HsTIM (human triosephosphate isomerase) (Homo sapiens, UniProt P60174); assay: Ellman free thiol count after derivatization; format: binding; set-up: gene TPI1; full-length; recombinant E. coli BL21-CodonPlus(DE3)-RIL, vector pET3a-HisTEV, N-terminal His6-TEV tag cut by TEVp for purified assays; tagged plasmid in E. coli tim-deletion BL21-Gold(DE3) cells for omeprazole; homodimer, 5 Cys per subunit; conditions: covalent; 250 µM compound, 2 h at 37 °C, enzyme 0.5 mg/mL, TE buffer pH 7.4
# T2 sequence (P60174 2-249): as the sequence (P60174 2-249 N16D) above, with D15N counted along it
# Excerpt: Ellman free thiol count after derivatization on HsTIM (human triosephosphate isomerase)
# [3] = target: T2, HsTIM (human triosephosphate isomerase); assay: TIM activity in lysate of treated E. coli tim-deletion cells; format: cell-based; set-up: gene TPI1; full-length; tagged plasmid in E. coli tim-deletion BL21-Gold(DE3) cells for omeprazole; homodimer, 5 Cys per subunit; conditions: residual activity; 0.75 mM omeprazole, 22 h at 37 °C, M9 medium; covalent
# Excerpt: TIM activity in lysate of treated E. coli tim-deletion cells on HsTIM (human triosephosphate isomerase)
IC50 [1],Derivatized Cys/Subunit [2],Enzyme Activity (%) [3],Compound
3 µM,–,–,"O=C(O)c1cc(SSc2ccc([N+](=O)[O-])c(C(=O)O)c2)ccc1[N+](=O)[O-] [DTNB, 5,5′-dithiobis-(2-nitrobenzoic acid)]"
7.5 µM,1 Cys/subunit,–,CSS(C)(=O)=O [MMTS]
6 µM,1 Cys/subunit,–,"CS(=O)(=O)SCCS(=O)(=O)O [MTSES, sodium 2-[(methylsulfonyl)sulfanyl] ethanesulfonate]"
–,–,96 ± 4%,COc1ccc2[nH]c([S+]([O-])Cc3ncc(C)c(OC)c3C)nc2c1 (stereo not drawn) [omeprazole]
